Assay results: US10233157B2, “SIK inhibitor for use in a method of treating an inflammatory and/or immune disorder” (Dana-Farber Cancer Institute, Inc., priority 2012, dated 2019)
Like-named read-outs stand apart in the source and are kept apart here.

Assays:
[1] = tested on: MARK isoforms; assay: Kinase assays, MARK isoforms; format: biochemical; settings: in vitro
[2] = tested on: CREB luciferase reporter; assay: CREB luciferase reporter assay in HEK293 cells; format: cell-based; settings: HEK293, 2 μM MRT67307, 10 μM forskolin 2 h
Description: FIG. 5. […] HEK293 cells were co-transfected with DNA encoding a CREB luciferase reporter construct and pTK-RL. […] Luciferase activity was measured with a dual luciferase assay system (Promega) and was normalized to Renilla luciferase activity (n=3, mean±SEM).
HEK293 cells were co-transfected with DNA encoding FLAG-CRTC3 or phosphomutants along with a CREB firefly luciferase reporter construct (pCRE-luc from Stratagene) and pTK-RL which encodes renilla luciferase under the control of a constitutive promoter. At 24 h post-transfection, cells were treated with or without 10 μM KIN112 for a further 24 h. Firefly luciferase activity was measured with a dual luciferase assay system (Promega) and was normalized to Renilla luciferase activity.

[3] = tested on: TBK1/IKKε−/− fibroblasts; assay: nurr77 mRNA in IL-1 stimulated TBK1/IKKε−/− embryonic fibroblasts; format: cell-based, mouse; settings: fibroblasts not expressing the IKK-related kinases
Description: Bone marrow-derived macrophages were differentiated for 7 days in DMEM supplemented with 5 ng/ml recombinant M-CSF (R&D systems), 2 mM glutamine, 10% foetal calf serum (FCS), penicillin and streptomycin. RAW264.7 cells and immortalized mouse embryonic fibroblasts (MEFs) from TBK1/IKKε^+/−, TBK1/IKKε^−/−, LKB1^+/+ and LKB1^−/− mice were cultured in DMEM containing 10% FCS, 2 mM glutamine and penicillin and streptomycin, while THP-1 monocytes were grown in RPMI-1640 supplemented with 10% FCS and antibiotics. For the culture of primary human macrophages, PBMCs were isolated from human blood using Ficoll and the monocytes were purified using anti-CD14 magnetic beads (Miltenyi Biotec). Monocytes were differentiated into macrophages for 6 days in the presence of 100 ng/ml M-CSF.

[4] = tested on: IL-10−/− macrophages; assay: Cytokine production in IL-10−/− macrophages; format: cell-based, mouse; settings: all TLR ligands examined other than LPS
Description: FIGS. 2A to 2G. […] As in A except that cells were stimulated for 2 h with LPS.
IL-10^−/− mice on a C57Bl/6 background were purchased from The Jackson Laboratory, Maine, USA. C57Bl/6, and IL-10^−/− mice were bred at the University of Dundee under specific pathogen-free conditions in accordance with European Union regulations. Work was approved by local ethical review and was performed with a UK Home Office project license.
Bone-marrow derived macrophages were differentiated for 7 days in DMEM supplemented with 5 ng/ml recombinant M-CSF (R&D systems), 2 mM glutamine, 10% foetal calf serum, penicillin and streptomycin.
Following stimulation with ligands, the cell culture medium was removed, clarified by centrifugation for 10 min at 14000×g and the concentration of TNFα, IL-6, IL-10, IL-12p40, and RANTES were measured using the Bio-Plex Pro Assay system from Bio-Rad. IFNβ was measured using an ELISA kit from R&D Systems according to the manufacturers' instructions.

[5] = tested on: protein kinases that possess a threonine residue at the gatekeeper site (Src, Lck, Yes, BTK, FGF and Ephrin receptors); assay: Kinase profiling, kinases with threonine at the gatekeeper site; format: biochemical; settings: kinase panel; 1 μM KIN112, 0.1 μM HG-9-91-01
Description: Recombinant SIK1, SIK2, SIK3 were expressed as GST-fusion proteins in HEK293 cells and purified on a glutathione-Sepharose column. […] FLAG-CRTC3 was immunoprecipitated using anti-FLAG M2 agarose, washed in kinase buffer (50 mM Tris/HCl pH 7.4, 10 mM Mg acetate, 0.1 mM EGTA, 2 mM DTT) and reactions initiated by adding 4 U/ml recombinant kinase with 0.1 mM ATP (specific activity 3000 cpm/pmol). Phosphorylation of CRTC3 was monitored by autoradiography as well as immunoblotting using phosphospecific antibodies raised against Ser162, Ser329 and Ser370. […] Kinase profiling was performed as previously described (7) and performed by the International Centre for Kinase Profiling (www.kinase-screen.mrc.ac.uk).

[6] = tested on: RAW264.7 macrophages; assay: IL-10 mRNA in RAW264.7 cells with shRNA knockdown of SIKs; format: cell-based; settings: for IC50: Mus musculus, RAW264.7, 1 h
Description: . (FIG. 16A) mRNA abundance of SIK1, SIK2 and SIK3 in RAW264.7 macrophages. Gene expression was measured by qPCR. The number of copies of each SIK mRNA was normalized to GAPDH. (mean±SD, n=3). (FIG. 16B) The efficiency of SIK knock-down. RAW264.7 cells were transduced with lentiviral vectors encoding a control shRNA or shRNAs targetting SIK1, SIK2 and SIK3. The expression of SIK1, SIK2 and SIK3 was measured by qPCR and normalized to that of control cells using GAPDH (mean±SD, n=3). […]. The levels of IL-10 mRNA were measured by qPCR and normalized using GAPDH. Data are presented with the highest level of expression set to 1 (mean±SD, n=3). […] (FIG. 16D) Increased IL-10 expression in cells with decreased SIK expression. […].
RNAi in Macrophages RAW264.7 cells or BMDMs were transfected with 100 pmol of SMARTpool siRNA oligos against CREB, CRTC1, CRTC2, CRTC3 or a non-targetting control (Dharmacon) using AMAXA nucleofection. Cells were cultured for 24 h prior to incubation with inhibitors for 1 h followed by stimulation for 1 h with 100 ng/ml LPS. Gene expression was measured by real-time quantitative PCR. For shRNA knockdown of SIKs, lentivirus was generated according to the manufacturer's instructions (Sigma) and RAW264.7 cells were infected using virus harvested 48 and 72 h post-transfection. Infected cells were selected using 3 μg/ml puromycin. QPCR

Row | SMILES | inhibition of MARK isoforms [1] | CREB-dependent luciferase transcription [2] | transcription of CREB-dependent nurr77 gene [3] | secretion of pro-inflammatory cytokines [4] | inhibition of protein kinases with a threonine residue at the gatekeeper site [5] | IC50 ([6]; read-out: IC50 for stimulation of IL-10 mRNA, SIK1/2/3 shRNA cells, 1 μg/ml Pam3CSK4 1 h) | IC50 ([6]; read-out: IC50 for stimulation of IL-10 mRNA, control shRNA cells, 1 μg/ml Pam3CSK4 1 h) | IL-10 mRNA expression in SIK-depleted versus wild-type macrophages ([6]; suboptimal concentration (100 nM))
1 | O=C(NCCCNc1nc(Nc2cccc(CN3CCOCC3)c2)ncc1C1CC1)C1CCC1 [MRT67307] | comparable potency to the IKK-related kinases | increases | could still enhance | failed to suppress |  |  |  | 
2 | COc1ccc(N(C(=O)Nc2c(C)cccc2C)c2cc(Nc3ccc(N4CCN(C)CC4)cc3)ncn2)c(OC)c1 [HG-9-91-01, 1-(2,4-dimethoxyphenyl)-3-(2,6-dimethylphenyl)-1-(6-((4-(4-methylpiperazin-1-yl)phenyl)amino)pyrimidin-4-yl)urea] |  |  |  |  | inhibited | 150 ± 20 nM | 260 ± 10 nM | 4 fold
